Measured values taken from patent US20230266302A1, “SYNTHESIS AND USE OF N-BENZYL SULFONAMIDES” (THE UNIVERSITY OF TULSA, priority 2020, published 2023).

Tests used:
Assay in all cases: ATP level assay (CellTiter-Glo), percent of control
Assay type in all cases: cell-based
NCI-H196 (lung cancer) = details: two hour incubation; for activity at 100 µM: NCI-H196, 2 h, compound alone, control DMSO, read-out: POC (percent of control) NCI-H196
PC3 (prostate cancer) = details: two hour incubation; for activity at 100 µM: 2 h, compound alone, control DMSO, read-out: POC (percent of control) PC3
MDA-MB (breast cancer) = details: two hour incubation; for activity at 100 µM: 2 h, compound alone, control DMSO, read-out: POC (percent of control) MDA-MB
MCF7 (breast cancer) = details: two hour incubation; for activity at 100 µM: Homo sapiens, MCF7, 2 h, compound alone, control DMSO, read-out: POC (percent of control) MCF7
SkBr3 (breast cancer) = details: two hour incubation; for activity at 100 µM: Homo sapiens, SK-BR-3, 2 h, compound alone, control DMSO, read-out: POC (percent of control) SkBr3
T47D (breast cancer) = details: two hour incubation; for activity at 100 µM: Homo sapiens, T47D, 2 h, compound alone, control DMSO, read-out: POC (percent of control) T47D
HeLa (cervical cancer) = details: two hour incubation; for activity at 100 µM: Homo sapiens, HeLa, 2 h, compound alone, control DMSO, read-out: POC (percent of control) HeLa
[1] = tested on: MCF10A (non-cancerous breast); details: two hour incubation; for activity at 100 µM: Homo sapiens, MCF-10A, 2 h, compound alone, control DMSO, read-out: POC (percent of control) MCF10A
HDF (normal cells) = details: two hour incubation; for activity at 100 µM: 2 h, compound alone, control DMSO, read-out: POC (percent of control) HDF
H293 (kidney cancer) = details: two hour incubation; for activity at 100 µM: 2 h, compound alone, control DMSO, read-out: POC (percent of control) H293
[2] = tested on: BxPC3 (pancreatic cancer); details: two hour incubation; for activity at 100 µM: Homo sapiens, BXPC-3, 2 h, compound alone, control DMSO, read-out: POC (percent of control) BxPC3
[3] = compound 100 uM + 2DG (about 10-20 mM)
[4] = compound 100 uM + rotenone (approximately 1.25 μM)

Structure (SMILES)	activity at 100 µM (NCI-H196 (lung cancer)) [%]	POC (percent of control) NCI-H196 (NCI-H196 (lung cancer); [3])	POC (percent of control) NCI-H196 (NCI-H196 (lung cancer); [4])	activity at 100 µM (PC3 (prostate cancer)) [%]	POC (percent of control) PC3 (PC3 (prostate cancer); [3])	POC (percent of control) PC3 (PC3 (prostate cancer); [4])	activity at 100 µM (MDA-MB (breast cancer)) [%]	POC (percent of control) MDA-MB (MDA-MB (breast cancer); [3])	POC (percent of control) MDA-MB (MDA-MB (breast cancer); [4])	activity at 100 µM (MCF7 (breast cancer)) [%]	POC (percent of control) MCF7 (MCF7 (breast cancer); [3])	POC (percent of control) MCF7 (MCF7 (breast cancer); [4])	activity at 100 µM (SkBr3 (breast cancer)) [%]	POC (percent of control) SkBr3 (SkBr3 (breast cancer); [3])	POC (percent of control) SkBr3 (SkBr3 (breast cancer); [4])	activity at 100 µM (T47D (breast cancer)) [%]	POC (percent of control) T47D (T47D (breast cancer); [3])	POC (percent of control) T47D (T47D (breast cancer); [4])	activity at 100 µM (HeLa (cervical cancer)) [%]	POC (percent of control) HeLa (HeLa (cervical cancer); [3])	also measured
Cc1ccc(S(=O)(=O)NCc2cscn2)cc1 [Compound 17, 4-methyl-N-(1,3-thiazol-4-ylmethyl)benzenesulfonamide]	96.8	103.8% of control	89.4% of control	113	93.7% of control	90.9% of control	105	89.8% of control	98.1% of control	145	114.6% of control	90.6% of control	90.1	88.8% of control	95.4% of control	83	89.1% of control	104.6% of control	90.3	118.8% of control	POC (percent of control) HeLa (HeLa (cervical cancer); [4]): 110.3% of control; activity at 100 µM [1]: 92.4%; POC (percent of control) MCF10A [1, 3]: 97.1% of control; POC (percent of control) MCF10A [1, 4]: 91.6% of control; activity at 100 µM (HDF (normal cells)): 90.7%; POC (percent of control) HDF (HDF (normal cells); [3]): 98% of control; POC (percent of control) HDF (HDF (normal cells); [4]): 84.1% of control; activity at 100 µM (H293 (kidney cancer)): 80.4%; POC (percent of control) H293 (H293 (kidney cancer); [3]): 85.8% of control; POC (percent of control) H293 (H293 (kidney cancer); [4]): 74.9% of control; activity at 100 µM [2]: 91.4%; POC (percent of control) BxPC3 [2, 3]: 101.4% of control; POC (percent of control) BxPC3 [2, 4]: 75.7% of control
Cc1ccc(S(=O)(=O)NCc2cnccn2)cc1 [Compound 16, 4-methyl-N-(pyrazin-2-ylmethyl)benzenesulfonamide]	110	99.2% of control	97.6% of control	109	113.1% of control	95.1% of control	106	104.5% of control	92.7% of control	123	93.3% of control	107.5% of control	91.9	81.4% of control	104% of control	91.1	111.6% of control	99.3% of control	96.8	106.8% of control	POC (percent of control) HeLa (HeLa (cervical cancer); [4]): 102.3% of control; activity at 100 µM [1]: 113%; POC (percent of control) MCF10A [1, 3]: 118.9% of control; POC (percent of control) MCF10A [1, 4]: 86.2% of control; activity at 100 µM (HDF (normal cells)): 94.3%; POC (percent of control) HDF (HDF (normal cells); [3]): 95.6% of control; POC (percent of control) HDF (HDF (normal cells); [4]): 98.3% of control; activity at 100 µM (H293 (kidney cancer)): 80.1%; POC (percent of control) H293 (H293 (kidney cancer); [3]): 80.7% of control; POC (percent of control) H293 (H293 (kidney cancer); [4]): 81.6% of control; activity at 100 µM [2]: 103%; POC (percent of control) BxPC3 [2, 3]: 95.4% of control; POC (percent of control) BxPC3 [2, 4]: 72.7% of control
Cn1ncc2cc(CNS(=O)(=O)c3ccc(Cl)cc3)ccc21 [Compound 10, 4-chloro-N-[(1-methyl-1H-indazol-5-yl)methyl]benzenesulfonamide]	106	90.8% of control	103.7% of control	115	97.8% of control	98.7% of control	94.1	86.7% of control	87.4% of control	115	121.2% of control	89.4% of control	90.8	98% of control	107.3% of control	63.5	76.6% of control	91.4% of control	106	91.3% of control	POC (percent of control) HeLa (HeLa (cervical cancer); [4]): 85.5% of control; activity at 100 µM [1]: 92%; POC (percent of control) MCF10A [1, 3]: 100.4% of control; POC (percent of control) MCF10A [1, 4]: 83.5% of control; activity at 100 µM (HDF (normal cells)): 88.6%; POC (percent of control) HDF (HDF (normal cells); [3]): 92.7% of control; POC (percent of control) HDF (HDF (normal cells); [4]): 82.2% of control; activity at 100 µM (H293 (kidney cancer)): 106%; POC (percent of control) H293 (H293 (kidney cancer); [3]): 84% of control; POC (percent of control) H293 (H293 (kidney cancer); [4]): 70.8% of control; activity at 100 µM [2]: 66.3%; POC (percent of control) BxPC3 [2, 3]: 62.9% of control; POC (percent of control) BxPC3 [2, 4]: 54.4% of control
COc1ncccc1CNS(=O)(=O)c1ccc(C)cc1 [Compound 12, N-[(2-methoxypyridin-3-yl)methyl]-4-methylbenzenesulfonamide]	83.5	117% of control	81.8% of control	82.1	89.9% of control	80.3% of control	87.2	83.9% of control	105.7% of control	97.3	90.8% of control	92.1% of control	91.6	73.5% of control	85.1% of control	59.8	58.1% of control	95.2% of control	98	78.5% of control	POC (percent of control) HeLa (HeLa (cervical cancer); [4]): 87.6% of control; activity at 100 µM [1]: 98.6%; POC (percent of control) MCF10A [1, 3]: 88.1% of control; POC (percent of control) MCF10A [1, 4]: 86.1% of control; activity at 100 µM (HDF (normal cells)): 77.8%; POC (percent of control) HDF (HDF (normal cells); [3]): 90.9% of control; POC (percent of control) HDF (HDF (normal cells); [4]): 70.4% of control; activity at 100 µM (H293 (kidney cancer)): 94.4%; POC (percent of control) H293 (H293 (kidney cancer); [3]): 85% of control; POC (percent of control) H293 (H293 (kidney cancer); [4]): 74.9% of control; activity at 100 µM [2]: 79.8%; POC (percent of control) BxPC3 [2, 3]: 57% of control; POC (percent of control) BxPC3 [2, 4]: 61% of control
Cc1cccc2c(CNS(=O)(=O)c3ccc(Cl)cc3)c[nH]c12 [Compound 28, 4-chloro-N-[(7-methyl-1H-indol-3-yl)methyl]benzenesulfonamide]	129	40.4% of control	60.6% of control	31.8	56.5% of control	64.8% of control	77.4	45.5% of control	78.1% of control	79	60.7% of control	53.5% of control	102	79.6% of control	87.3% of control	66.1	33.7% of control	62.2% of control	57.7	65.6% of control	POC (percent of control) HeLa (HeLa (cervical cancer); [4]): 96.1% of control; activity at 100 µM [1]: 72.8%; POC (percent of control) MCF10A [1, 3]: 29.5% of control; POC (percent of control) MCF10A [1, 4]: 81.1% of control; activity at 100 µM (HDF (normal cells)): 74.9%; POC (percent of control) HDF (HDF (normal cells); [3]): 56.1% of control; POC (percent of control) HDF (HDF (normal cells); [4]): 62.2% of control; activity at 100 µM (H293 (kidney cancer)): 43.2%; POC (percent of control) H293 (H293 (kidney cancer); [3]): 49% of control; POC (percent of control) H293 (H293 (kidney cancer); [4]): 43.3% of control; activity at 100 µM [2]: 40.4%; POC (percent of control) BxPC3 [2, 3]: 41.8% of control; POC (percent of control) BxPC3 [2, 4]: 44.6% of control
